In one data set the target is T1, Estrogen receptor (Homo sapiens, UniProt P03372).
T1 sequence (P03372 whole entry): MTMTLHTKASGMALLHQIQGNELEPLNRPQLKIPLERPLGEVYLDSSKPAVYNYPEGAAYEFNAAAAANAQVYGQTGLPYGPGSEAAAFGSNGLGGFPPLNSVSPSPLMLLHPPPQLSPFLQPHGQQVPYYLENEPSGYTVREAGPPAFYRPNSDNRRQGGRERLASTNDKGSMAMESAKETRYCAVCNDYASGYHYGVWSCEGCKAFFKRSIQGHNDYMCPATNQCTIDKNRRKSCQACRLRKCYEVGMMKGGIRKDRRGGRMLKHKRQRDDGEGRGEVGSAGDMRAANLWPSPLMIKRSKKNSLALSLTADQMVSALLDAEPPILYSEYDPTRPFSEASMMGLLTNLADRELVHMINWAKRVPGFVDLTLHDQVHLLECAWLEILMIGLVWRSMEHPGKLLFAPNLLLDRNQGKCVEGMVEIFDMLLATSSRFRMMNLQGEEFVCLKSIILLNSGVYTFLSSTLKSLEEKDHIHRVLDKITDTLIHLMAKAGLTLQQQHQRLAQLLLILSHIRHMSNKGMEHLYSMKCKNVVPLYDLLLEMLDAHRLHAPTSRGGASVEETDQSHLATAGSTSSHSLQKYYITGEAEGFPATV
The data set is described as follows: Binding affinity to ERalpha (unknown origin) by SPR assay.

Data set [1] has as its target T2, Interleukin-6 receptor subunit beta (Homo sapiens) (UniProt P40189).
T2 sequence (whole entry): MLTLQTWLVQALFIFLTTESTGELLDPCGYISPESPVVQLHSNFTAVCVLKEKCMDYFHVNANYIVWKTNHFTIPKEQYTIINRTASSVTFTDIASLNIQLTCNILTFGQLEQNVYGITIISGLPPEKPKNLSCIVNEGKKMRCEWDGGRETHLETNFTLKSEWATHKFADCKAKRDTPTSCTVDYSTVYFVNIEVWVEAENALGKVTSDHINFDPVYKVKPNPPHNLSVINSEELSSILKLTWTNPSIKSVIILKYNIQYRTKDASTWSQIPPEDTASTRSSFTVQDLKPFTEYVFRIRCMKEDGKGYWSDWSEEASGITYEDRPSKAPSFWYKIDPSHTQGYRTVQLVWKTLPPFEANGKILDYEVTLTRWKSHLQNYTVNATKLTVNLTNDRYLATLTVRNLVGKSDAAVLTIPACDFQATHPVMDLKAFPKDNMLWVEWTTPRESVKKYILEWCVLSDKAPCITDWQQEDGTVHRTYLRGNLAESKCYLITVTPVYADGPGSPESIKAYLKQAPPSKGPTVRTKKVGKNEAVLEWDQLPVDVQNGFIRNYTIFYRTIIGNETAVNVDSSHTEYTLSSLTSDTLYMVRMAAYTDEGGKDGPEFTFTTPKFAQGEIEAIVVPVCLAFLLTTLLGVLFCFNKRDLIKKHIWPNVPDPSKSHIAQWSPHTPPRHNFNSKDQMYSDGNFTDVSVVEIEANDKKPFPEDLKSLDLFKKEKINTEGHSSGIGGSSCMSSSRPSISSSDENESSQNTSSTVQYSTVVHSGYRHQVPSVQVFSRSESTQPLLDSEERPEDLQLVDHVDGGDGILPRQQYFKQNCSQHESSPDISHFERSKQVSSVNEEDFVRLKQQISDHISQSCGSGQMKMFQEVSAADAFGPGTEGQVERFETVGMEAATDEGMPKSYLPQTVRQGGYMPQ
The data set is described as follows: Binding affinity to immobilized GP130 (unknown origin) assessed as response unit at 20 uM by SPR analysis. (Surface plasmon resonance follows binding to a sensor surface in real time, without labels.)

In data set [2] the target is T2, Interleukin-6 receptor subunit beta (Homo sapiens). Kind of data set: Binding affinity to D2/D3 domain of FLAG-tagged GP130 (unknown origin) expressed in HEK293 cells assessed as inhibition of rhIL6/Myc-tagged IL6R interaction with GP130 at 10 uM preincubated for 4 hrs followed by stimulation with recombinant human IL6 for 30 mins by co-immunoprecipitation method. The class given is cell-based. The note with it: time 270.0 min.

For data set [3] the target is unchanged. Kind of data set: Inhibition of GP130 in human A549 cells assessed as decrease in JAK2 phosphorylation at 3 to 9 uM incubated for 24 hrs by western blot analysis. It is filed as cell-based. The settings on record: dose 3-9 µM. A general note: A western blot detects proteins with antibodies after separation by electrophoresis.
The target is the same in data set [4]. Kind of data set: Inhibition of GP130 in human A549 cells assessed as reduction in bcl2 protein expression after 24 hrs by Western blot analysis. The class given is cell-based. The settings on record: dose 3-9 µM.
Data set [5] has the same target. Kind of data set: Inhibition of GP130 in human A549 cells assessed as reduction in survivin protein expression after 24 hrs by Western blot analysis. It is filed as cell-based. The settings on record: dose 3-9 µM.
Data set [6] concerns A549. Kind of data set: Induction of apoptosis in human A549 cells assessed as necrotic cells at 3 uM incubated for 24 hrs by annexin V-FITC and propidium iodide staining based flow cytometry analysis (reference value: 0.4 %). It is filed as functional. (A flow cytometer gives signals particle by particle.)
Data set [7] deals with A549. Kind of data set: Induction of apoptosis in human A549 cells assessed as necrotic cells at 9 uM incubated for 24 hrs by annexin V-FITC and propidium iodide staining based flow cytometry analysis (reference value: 0.4 %). The class given is functional.
In data set [8] the test system is A549. The data set is described as follows: Induction of ROS generation in human A549 cells assessed as fold increase in ROS level at 9 uM after 24 hrs by DCFH-DA staining based flow cytometric analysis relative to control. The class given is functional.
Data set [9] deals with A549. Kind of data set: Inhibition of colony formation in human A549 cells incubated for 24 hrs by crystal violet staining based assay. It is filed as functional, cell-based. The settings on record: dose 2-10 µM.
Data set [10] relates to A549. The data set is described as follows: Antimigratory activity against human A549 cells assessed as reduction in cell migration measured after 24 hrs by scratch wound healing assay. The settings on record: dose 3-6 µM. The class given is functional, cell-based.
Data set [11] has as its system A549. Kind of data set: Antitumor activity against human A549 cells xenografted in nude mouse assessed as decrease in tumor weight at 20 mg/kg, ip administered daily for 21 days and measured every 2 to 3 days. It is filed as functional. The settings on record: 504 h, time 21 day.
Another data set relates to Mus musculus. Kind of data set: Inhibition of phosphorylated STAT3 levels in tumor tissue of nude mouse xenografted with human A549 cells at 10 to 20 mg/kg, ip administered daily for 21 days by western blot analysis. It is filed as functional, organism-based. The note with it: dose 10-20 mg/kg, time 21.0 day.
A short description of data set [12]: Acute toxicity in ICR mouse assessed as mortality at 120 mg/kg measured after 2 weeks. The class given is organism-based. The note with it: in vivo, 336 h.
A short description of data set [13]: Toxicity in nude mouse xenografted with human A549 cells assessed as effect on body weight at 10 to 20 mg/kg, ip administered daily for 21 days and measured every 2 or 3 days. The class given is organism-based. The settings on record: in vivo, 504 h, dose 10-20 mg/kg, time 21 day.
Data set [14] in a line: Half life in rat at 0.5 mg/kg, iv. The settings on record: in vivo. The class given is ADME, organism-based.
Data set [15] is described as follows: AUC (0 to infinity) in rat at 5 mg/kg, ig. The settings on record: in vivo, po. The class given is ADME, organism-based. Further details: route […], time infinity, dose 5 mg/kg.
A short description of data set [16]: Clearance in rat at 5 mg/kg, ig. It is filed as ADME, organism-based. The settings on record: in vivo, po.
Data set [17] can be described thus: Clearance in rat at 0.5 mg/kg, iv. The settings on record: in vivo. The class given is ADME, organism-based.
A short description of data set [18]: Mean residence time in rat at 5 mg/kg, ig. The settings on record: in vivo, po. It is filed as ADME, organism-based.
The nature of data set [19]: Bioavilability in rat at 5 mg/kg, ig. The class given is ADME, organism-based. The settings on record: in vivo, po.
Data set [20] has as its system A549. Kind of data set: Antitumor activity against human A549 cells xenografted in nude mouse assessed as decrease in tumor weight at 10 mg/kg, ip administered daily for 21 days and measured every 2 to 3 days. It is filed as functional. The settings on record: 504 h, time 21 day.

These results are taken from ChEMBL document CHEMBL4680259, “Discovery of bazedoxifene analogues targeting glycoprotein 130” (Eur J Med Chem, 2020).

As a reminder, the pKd is −log10 of the Kd, conventionally taken in molar units. The term inhibition in vivo denotes the drop in the measured response relative to a control, in per cent. In general, half-life refers to the time in which the quantity being followed falls by half. A low value points to fast loss. One may read the AUC as concentration integrated over time. One may read the clearance as a measure of how efficiently the substance is removed, as volume per time. The low end stands for a low capacity for elimination, the high end for a high capacity for elimination. By MRT is commonly meant the average time that molecules of a dose stay in the body. By bioavailability is commonly meant dose-corrected exposure relative to a reference, in per cent. A low value points to little systemic uptake.

pKd: −log10 of the molar value. Active and inactive are the calls of the source. The calls are words filed in the database; no cut-off is given here.

The compound `NC(=O)N1N=C(c2ccc(C(F)(F)F)cc2)CC1c1cn(Cc2ccc(OCCN3CCCCCC3)cc2)c2ccc(Br)cc12` (configuration not stated) gave a pKd on Estrogen receptor of 4.33. Moreover, the Activity in [1] is 28.3 RU; with A549 [6], 0.4%; in the data set on A549 [7], 2.6%; with A549 [10], “Dose-dependent effect”; in data set [12], “Non-Toxic”; in data set [13], “Non-Toxic”. In [2], the outcome was inactive. The outcome in data set [3] was Active. In addition, the inhibition result (in [4]; in data set [5]; in the data set on A549 [9]) was “Dose-dependent effect” each time. Further, the “fold change (FC)” value in the data set on A549 [8] came to 6.28. Further, the inhibition in vivo at 20 mg/kg with A549 [11] worked out at 59%. For the same compound, the inhibition entry in the data set on Mus musculus was “Active”. For the same compound, the half-life in data set [14] is 11.8 h. Moreover, the AUC in [15] was 329.9 ng·h/mL. Besides, the CL in data set [16] turned out to be 14.8 mL/min/kg. Moreover, the clearance in data set [17] is 14.5 mL/min/kg. In data set [18], the mean residence time MRT was 11.6 h. This compound also gave a bioavailability in [19] of 5.6%. The inhibition in vivo at 10 mg/kg with A549 [20] was found to be 27.1%.
